Experimental data taken from patent US12274703B2, “Compositions and methods of treatment for neurological disorders comprising a dementia” (Gliapharm SA, priority 2017, dated 2025).
Counter-ions that a name gives are not always drawn. Like-named read-outs stand apart in the source and are kept apart here.

Columns and labels:
astrocytes [1] = assay: Extracellular lactate quantification; type: cell-based, mouse; conditions: for EC50: Mus musculus, Astrocyte; for Score_LACTATE: Appendix I, secondary screening, dosage of extracellular lactate
Experimental: (§1) Primary cultures of cerebrocortical astrocytes were obtained from 1-2-day-old OF1 mouse pups (Charles River Laboratories). Briefly, cortices were isolated and minced in small pieces under a dissecting microscope. The cells were incubated for 30 min at 37° C. in a solution containing 20 U/ml of papain enzyme (Worthington Biochemical), L-cysteine 1 mM (Sigma), and 10 kU/ml DNase I (Worthington Biochemical) for an enzymatic dissociation. Papain activity was stopped by the addition of fetal calf serum (FCS) to the solution, and a single-cell suspension was then obtained by mechanical dissociation, which consisted in cells trituration in a DMEM (D7777, Sigma-Aldrich) medium (supplemented with 44 mm NaHCO3, and 10 ml/L antibiotic/antimycotic solution) containing 10% FCS. The cells were seeded at an average density of 6×10^4 cells/cm^2 in poly-D-lysine-coated 96, 12 or 6-well culture plates, depending on their use, and incubated at 37° C. in a humidified atmosphere containing 5% CO2/95% air. Culture medium was renewed twice per week. Cells were stimulated and harvested between DIV14 and DIV17, when confluence and cell growth were optimal.
Secretion of L-lactate was determined in the extracellular medium of 96-well plated astrocytes after 90 min stimulation (at 37° C., in 5% CO2/95% air conditions) with the drug of interest. The stimulation medium was composed of D5030 medium (completed with D-glucose 5 mM and 44 mM sodium bicarbonate) for 90 min in concentrations ranging from 0 to 100 μM.
Briefly, 200 μl of a Glycine (Sigma)-Semicarbazide (Acros) 0.2M pH 10 buffer containing 3 mM NAD (Roche) and LDH 14 U/ml (Roche) was added to each well of a 96-well plate containing 30 μl aliquots complemented with 20 μl fresh complete D5030 medium. Samples were incubated at 37° C. for 1 h. After samples cooled down at room temperature, the fluorescence intensity (340 nm excitation/450 nm emission) that represents the amount of NADH produced was measured, and lactate concentration values were determined from a standard curve of L-lactate.
Statistical analysis consisted in ANOVA followed by Fisher LSD post-hoc test for pair-wise comparisons.
Levels of lactate secreted by astrocytes were measured in the extracellular medium at 90 min after stimulation with hits (molecules) from the CDC54K library.

primary astrocytes = assay: High throughput screening for lactate secretion: acidification of extracellular medium (SNARF5); type: cell-based, mouse; parameters: key to Score / HTS Score (lactate) / HTS Score (SNARF5) / Score_SNARF: fraction of positive control activity (positive control = 100%); conditions: for Emax at 10 µM: Mus musculus, Astrocyte, 1.5 h; for Score_SNARF: primary screening confirmation (SNARF5)
In short: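 Mouse cortical astrocytes (DIV17) stimulated 90 min at 10 uM compound (1% DMSO) in low-bicarbonate DMEM, 5 mM glucose, with SNARF-5F; extracellular acidification read as 630/580 nm emission ratio (exc 480 nm). Duplicates; score as % of CCCP 2 uM control, hits >3× summed SD above DMSO.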

astrocytes [2] = assay: MTT viability assay; type: cell-based; conditions: Mus musculus, Astrocyte, cellular toxicity, 0-200 uM
Experimental: as §1
For cell toxicity determination, astrocytes in 96-well plates were stimulated 24 h (37° C. 5% CO2/95% air) with a gradient ranging from 0.1 to 200 μM of tested compounds. After stimulation, 5 mg/ml thiazol blue tetrazolium bromide (MTT, Sigma-Aldrich) in warm D5030 complete medium was added to each well, and cells were incubated for 4 h at 37° C. (5% CO2). The medium was then removed by aspiration, and the reaction was stopped by the addition of 50 μl DMSO per well.
The amount of reduced MTT (formazan) solubilized in DMSO was then determined spectrophotometrically using absorbance at 570 nm (Safire 2; Tecan).
MTT cellular viability assay was performed on astrocytes exposed to molecules from the Prestwick library (Prestwick hits; concentrations ranging from 0 uM to 200 uM).
MTT cellular viability assay was performed on astrocytes exposed to CDC54K hits (concentrations ranging from 0 uM to 200 uM).

astrocytes [3] = assay: Intracellular glycogen quantification; type: cell-based, mouse; conditions: 10 μM, 3 h
astrocytes [4] = assay: Production of H2O2 (mitochondrial activity); type: cell-based; conditions: Mus musculus, Astrocyte, 1.5 h; CDC54K hits; 0-200 uM, 90 min
Experimental: as §1
Hydrogene peroxide (H2O2) released in the supernatant is detected enzymatically with Amplex red (Zhou, Diwu et al. 1997). Oxidation of Amplex red is catalysed by the horseradish peroxidase in presence of H2O2 into highly fluorescent resorufin. Fluorescence measure is read at 545 nm extinction, 590 nm emission. The amount of H2O2 was expressed relatively to the proteins content extracted from the cells in culture. […]
Mitochondrial respiration in astrocytes was measured through production of H2O2 at 90 min after stimulation with CDC54K hits (ranging from 0 to 200 uM).

[5] = 1.5 h, Prestwick hits, 0-100 μM, 90 min, read-out: Lactate EC50
[6] = Prestwick hits, 10 uM, 90 min, activity relative to positive control CCCP 2 uM, read-out: Score
[7] = Prestwick hits, 10 uM, 90 min, relative to positive control CCCP 2 uM, read-out: HTS Score (lactate)
[8] = 1.5 h, CDC54K hits, 0-100 uM, 90 min, read-out: Lactate EC50
[9] = Appendix I, primary screening, 10 uM, 90 min, relative to positive control, read-out: Score
[10] = CDC54K hits, 10 uM, 90 min, relative to positive control CCCP 2 uM, read-out: HTS Score (SNARF5)
[11] = Appendix I, primary screening, 10 uM, 90 min, relative to positive control
[12] = CDC54K hits, 10 uM, 90 min, relative to positive control CCCP 2 uM

Structure (SMILES)	EC50 (astrocytes [1]; [5]) [µM]	Emax at 10 µM (primary astrocytes; [6]) [%]	Emax at 10 µM (primary astrocytes; [7]) [%]	IC50 (astrocytes [2]; Prestwick hits, 24 h) [µM]	EC50 (astrocytes [1]; [8]) [µM]	IC50 (astrocytes [4]) [µM]	IC50 (astrocytes [2]; CDC54K hits) [µM]	also measured
O=C(COc1ccc(Cl)cc1)N1CCN(Cc2ccc3c(c2)OCO3)CC1 [Fipexide hydrochloride]	5.16	16.6	16.6	44	–	–	–	Glycogen (statistical significance of glycogen degradation) (astrocytes [3]; Prestwick hits): ns
Fc1ccc(-c2cc3n(n2)CCCN(Cc2ccncc2)C3)cc1 [T202-1455]	–	–	–	–	15	> 200	> 200	Emax at 10 µM (primary astrocytes; [9]): 97.1%; Emax at 10 µM (primary astrocytes; [10]): 97.1%; Glycogen (statistical significance of glycogen degradation) (astrocytes [3]; CDC54K hits): ns
COC1=C(OC)C(=O)C(CCCCCCCCCCO)=C(C)C1=O [Idebenone]	0.602	25.9	25.9	112	–	–	–	–
C#C[C@]1(O)CC[C@H]2[C@@H]3[C@H](C)CC4=C(CCC(=O)C4)[C@H]3CC[C@@]21C [Tibolone]	2.23	22.7	22.7	60.7	–	–	–	–
Cc1c(C)c2c(c(C)c1O)CCC(C)(COc1ccc(CC3SC(=O)NC3=O)cc1)O2 (stereo not shown) [Troglitazone]	2.57	27	27	106	–	–	–	–
O=c1n(CCCN2CCN(c3cccc(Cl)c3)CC2)nc2ccccn12 [Trazodone hydrochloride, trazodone, reference compound]	–	–	–	–	–	–	–	Score (primary astrocytes; Prestwick hits, 10 uM, 90 min, activity relative to positive control CCCP 2 uM): 0.08377; HTS Score (lactate) (primary astrocytes; Prestwick hits, 10 uM, 90 min, relative to positive control CCCP 2 uM): 0.084; Glycogen (statistical significance of glycogen degradation) (astrocytes [3]; Prestwick hits): ns
CC(=O)c1cccc(NC(=O)C(C)Sc2ncnc3ccccc23)c1 (stereo not shown) [T0511-9200]	–	–	–	–	10.2	> 200	> 200	Emax at 10 µM (primary astrocytes; [9]): 84.4%; Emax at 10 µM (primary astrocytes; [10]): 84.4%; Glycogen (statistical significance of glycogen degradation) (astrocytes [3]; CDC54K hits): ns
CSc1cccc(NS(=O)(=O)c2ccc3onc(C(=O)N4CCCC4)c3c2)c1 [L995-0125]	–	–	–	–	2	173	> 200	Score_LACTATE (astrocytes [1]): 0.9122; Score_SNARF (primary astrocytes; Appendix I): 0.8016; Score (primary astrocytes; [11]): 0.8545; HTS Score (SNARF5) (primary astrocytes; [12]): 0.854; Glycogen (statistical significance of glycogen degradation) (astrocytes [3]; CDC54K hits): ns
CCc1ccc(S(=O)(=O)Nc2ccc3[nH]ncc3c2)cc1 [T5599014]	–	–	–	–	8.8	158	> 200	Score_LACTATE (astrocytes [1]): 0.4419; Score_SNARF (primary astrocytes; Appendix I): 0.5778; Score (primary astrocytes; [11]): 0.5424; HTS Score (SNARF5) (primary astrocytes; [12]): 0.542; Glycogen (statistical significance of glycogen degradation) (astrocytes [3]; CDC54K hits): ns
COc1cccc(CNS(=O)(=O)c2ccc3c(c2)CCCN3C(C)=O)c1 [T5967389]	–	–	–	–	23.5	> 200	> 200	EC50 (astrocytes [1]; Appendix II, lactate secretion, read-out: EC50): 9.67 µM; Emax at 10 µM (primary astrocytes; [9]): 79%; Emax at 10 µM (primary astrocytes; [10]): 79%
N=C(N)N1CCc2ccccc2C1 [Debrisoquin sulfate]	2.73	23.8	23.8	> 200	–	–	–	–
COc1ccc(Cc2nccc3cc(OC)c(OC)cc23)cc1OC [Papaverine hydrochloride]	0.629	35.5	35.5	> 200	–	–	–	–
[H]/N=C(\N/C(=N/[H])Nc1ccc(Cl)cc1)NC(C)C [Proguanil hydrochloride]	0.854	55.5	55.5	48.1	–	–	–	–
COc1ccccc1NC(=O)Cc1nn(C)c(=O)c2ccccc12 [K851-0113]	–	–	–	–	2	> 200	> 200	Emax at 10 µM (primary astrocytes; [9]): 72.2%; Emax at 10 µM (primary astrocytes; [10]): 72.2%; Glycogen (statistical significance of glycogen degradation) (astrocytes [3]; CDC54K hits): ns
CCc1ccc(S(=O)(=O)N2CCSC2c2ccc(OC)c(OC)c2)cc1 (stereo not shown) [T5463586]	–	–	–	–	10	> 200	> 200	Score_LACTATE (astrocytes [1]): 0.3936; Score_SNARF (primary astrocytes; Appendix I): 0.5553; Score (primary astrocytes; [11]): 0.7707; HTS Score (SNARF5) (primary astrocytes; [12]): 0.77
CC[N+](CC)(CC(=O)Nc1c(C)cccc1C)Cc1ccccc1 [Denatonium benzoate]	12.2	11	11	178	–	–	–	–
C[N+]1(C)CCC(=C(c2ccccc2)c2ccccc2)CC1 [Diphemanil methylsulfate]	1.17	48.4	48.4	13.9	–	–	–	–
CC(C)[N+](C)(CCOC(=O)C1c2ccccc2Oc2ccccc21)C(C)C [Propantheline bromide]	11.7	49.1	49.1	12.8	–	–	–	–
